Results from the supplement of paper PMC11061612.

Columns and labels:
[1] = system: CAL-54 (Kidney Carcinoma); assay: Bliss excess, mean over the matrix (fraction); higher = more synergy
Outline: (§1)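 Cell lines grown in DMEM/F12 or RPMI with 10% FBS were plated in 1536-well plates and held 24 hours at 37°C, 5% CO2 before 72 hours of exposure to two-drug dose matrices, with DMSO typically at 0.2%. CellTiter-Glo 2.0 luminescence gave viability, which was converted to inhibition. Vehicle wells were set to 0 and blank wells to 1. Combination Emax is the second-highest inhibition in the matrix, and Bliss excess is the observed combination effect minus the expected EA + EB − EA·EB, where EA and EB are the single-agent effects.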

[2] = system: CAPAN-1 (Pancreatic Carcinoma); assay: as above
Outline: as §1

[3] = system: HARA (Squamous Cell Lung Carcinoma); assay: as above
Outline: as §1

[4] = system: LB771-HNC (Head and Neck Carcinoma); assay: as above
Outline: as §1

[5] = system: 8305C (Thyroid Gland Carcinoma); assay: combination Emax (second highest fraction inhibited in the dose matrix, 72 h); higher = more inhibition; extreme values may be limits of the assay
Outline: as §1

[6] = system: HCC-15 (Squamous Cell Lung Carcinoma); assay: as above
Outline: as §1

[7] = system: HDLM-2 (Hodgkin's Lymphoma); assay: as above
Outline: as §1

[8] = system: KYSE-410 (Esophageal Squamous Cell Carcinoma); assay: as above
Outline: as §1

[9] = system: NB14 (Neuroblastoma); assay: as above
Outline: as §1

[10] = system: NCI-H28 (Mesothelioma); assay: as above
Outline: as §1

[11] = system: NCI-H69 (Small Cell Lung Carcinoma); assay: as above
Outline: as §1

[12] = system: NCI-H747 (Colorectal Carcinoma); assay: as above
Outline: as §1

[13] = system: OVCAR-8 (Ovarian Carcinoma); assay: as above
Outline: as §1

[14] = system: RKO (Colorectal Carcinoma); assay: as above
Outline: as §1

[15] = system: RPMI-6666 (Non-Cancerous); assay: as above
Outline: as §1

[16] = system: RT-112 (Bladder Carcinoma); assay: as above
Outline: as §1

[17] = system: SK-OV-3 (Ovarian Carcinoma); assay: as above
Outline: as §1

[18] = system: SUP-T1 (T-Lymphoblastic Leukemia); assay: as above
Outline: as §1

[19] = system: TE-4 (Esophageal Squamous Cell Carcinoma); assay: as above
Outline: as §1

[20] = system: UMC-11 (Other Solid Carcinomas); assay: as above
Outline: as §1
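Wherever Bliss excess, mean over the matrix is given: after 72 h of two-drug dosing.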

Compound	Bliss excess [1]	Bliss excess [2]	Bliss excess [3]	Bliss excess [4]	combination Emax [5]	combination Emax [6]	combination Emax [7]	combination Emax [8]	combination Emax [9]	combination Emax [10]	combination Emax [11]	combination Emax [12]	combination Emax [13]	combination Emax [14]	combination Emax [15]	combination Emax [16]	combination Emax [17]	combination Emax [18]	combination Emax [19]	combination Emax [20]
C[C@@H](c1ccc2nccn2c1)n1nnc2ncc(-c3cnn(C)c3)nc21 [Savolitinib] + Cc1c2c(nn1C)CSCc1cc(n(C)n1)CSc1cc(c3ccccc3c1)OCCCc1c(C(=O)O)n(C)c3c-2c(Cl)ccc13 [AZD5991] (first compound max 1 µM, 7x7, partner max 1 µM)	-0.0337	-0.0702	-0.0353	-0.054	0.196	0.124	0.962	0.181	0.293	0.155	0.159	0.337	0.0965	0.211	0.523	0.602	0.112	0.138	0.422	0.275
Cn1cnc2c(F)c(Nc3ccc(Br)cc3Cl)c(C(=O)NOCCO)cc21 [Selumetinib] + C=CCn1c(=O)c2cnc(Nc3ccc(N4CCN(C)CC4)cc3)nc2n1-c1cccc(C(C)(C)O)n1 [AZD1775] (first compound max 10 µM, partner max 1 µM)	-0.076	-0.0399	-0.0406	-0.0937	0.481	0.612	0.71	0.431	1	0.433	0.133	0.793	0.872	0.904	0.829	0.61	0.365	0.809	0.642	0.584
Cn1cnc2c(F)c(Nc3ccc(Br)cc3Cl)c(C(=O)NOCCO)cc21 [Selumetinib] + CC(C)n1c(=O)n(C)c2cnc3cc(F)c(-c4ccc(OCCCN5CCCCC5)nc4)cc3c21 [AZD1390] (first compound max 10 µM, 7x7, partner max 0.3 µM)	-0.0377	-0.0537	-0.0159	-0.067	0.379	0.421	0.138	0.163	0.241	0.262	0.122	0.702	0.132	0.606	0.368	0.353	0.238	0.0785	0.226	0.0797
Cn1cnc2c(F)c(Nc3ccc(Br)cc3Cl)c(C(=O)NOCCO)cc21 [Selumetinib] + CCN(CCO)CCCOc1ccc2c(Nc3cc(CC(=O)Nc4cccc(F)c4)[nH]n3)ncnc2c1 [AZD2811] (first compound max 10 µM, 7x7, partner max 1 µM)	-0.0129	-0.0209	0.0522	-0.0486	0.438	0.799	0.151	0.256	0.866	0.352	0.548	0.793	0.246	0.838	0.557	0.456	0.226	0.413	0.422	0.818
Cn1cnc2c(F)c(Nc3ccc(Br)cc3Cl)c(C(=O)NOCCO)cc21 [Selumetinib] + C[C@@H]1COCCN1C2=NC(=NC(=C2)C3(CC3)[S@](=N)(=O)C)C4=C5C=CNC5=NC=C4 [AZD6738] (first compound max 10 µM, 7x7, partner max 10 µM)	-0.0083	0.0147	-0.0115	-0.0532	0.534	0.503	0.243	0.302	0.97	0.471	0.261	0.776	0.739	0.945	0.804	0.555	0.32	0.713	0.791	0.603
CC(=O)Nc1cccc(-n2c(=O)n(C3CC3)c(=O)c3c(Nc4ccc(I)cc4F)n(C)c(=O)c(C)c32)c1 [Trametinib] + Cc1nc(-c2cn3c(n2)-c2ccc(-c4cnn(C(C)(C)C(N)=O)c4)cc2OCC3)n(C(C)C)n1 [Taselisib] (first compound max 1 µM, 7x7, partner max 10 µM)	0.0303	0.129	0.162	0.125	0.945	0.987	0.362	0.993	0.822	0.632	0.688	0.952	0.594	0.956	0.675	0.884	0.797	0.596	1	0.355
CC1(C)CCC(CN2CCN(c3ccc(C(=O)NS(=O)(=O)c4ccc(NCC5CCOCC5)c([N+](=O)[O-])c4)c(Oc4cnc5[nH]ccc5c4)c3)CC2)=C(c2ccc(Cl)cc2)C1 [Venetoclax] + C1CN(CCC1(C(=O)N[C@@H](CCO)C2=CC=C(C=C2)Cl)N)C3=NC=NC4=C3C=CN4 [Capivasertib] (first compound max 1 µM, 7x7, partner max 3 µM)	-0.027	-0.0473	-0.009	-0.008	0.387	0.232	0.514	0.203	0.95	0.216	0.802	0.441	0.184	0.36	0.963	0.192	0.353	0.757	0.564	0.196
CC1(C)CCC(CN2CCN(c3ccc(C(=O)NS(=O)(=O)c4ccc(NCC5CCOCC5)c([N+](=O)[O-])c4)c(Oc4cnc5[nH]ccc5c4)c3)CC2)=C(c2ccc(Cl)cc2)C1 [Venetoclax] + C=CCn1c(=O)c2cnc(Nc3ccc(N4CCN(C)CC4)cc3)nc2n1-c1cccc(C(C)(C)O)n1 [AZD1775] (first compound max 1 µM, partner max 1 µM)	-0.0099	-0.0443	0.0494	0.0127	0.639	0.469	0.88	0.422	1	0.336	0.425	0.479	0.798	0.88	0.996	0.978	0.74	0.812	0.555	0.487
CC1(C)CCC(CN2CCN(c3ccc(C(=O)NS(=O)(=O)c4ccc(NCC5CCOCC5)c([N+](=O)[O-])c4)c(Oc4cnc5[nH]ccc5c4)c3)CC2)=C(c2ccc(Cl)cc2)C1 [Venetoclax] + CCN(CCO)CCCOc1ccc2c(Nc3cc(CC(=O)Nc4cccc(F)c4)[nH]n3)ncnc2c1 [AZD2811] (first compound max 1 µM, 7x7, partner max 1 µM)	-0.0105	-0.042	0.0345	-0.028	0.354	0.781	0.486	0.191	1	0.255	0.824	0.246	0.298	0.27	0.991	0.458	0.205	0.614	0.191	0.91
CC1(C)CCC(CN2CCN(c3ccc(C(=O)NS(=O)(=O)c4ccc(NCC5CCOCC5)c([N+](=O)[O-])c4)c(Oc4cnc5[nH]ccc5c4)c3)CC2)=C(c2ccc(Cl)cc2)C1 [Venetoclax] + CN(C)CCCOc1ccc(-c2ccc3ncc4c(c3c2)n(C2CCOCC2)c(=O)n4C)cn1 [AZD0156] (first compound max 1 µM, 7x7, partner max 1 µM)	-0.0085	-0.0696	-0.0121	-0.0215	0.369	0.215	0.362	0.172	0.98	0.193	0.548	0.305	0.219	0.381	0.976	0.243	0.239	0.616	0.179	0.269
CC1(C)CCC(CN2CCN(c3ccc(C(=O)NS(=O)(=O)c4ccc(NCC5CCOCC5)c([N+](=O)[O-])c4)c(Oc4cnc5[nH]ccc5c4)c3)CC2)=C(c2ccc(Cl)cc2)C1 [Venetoclax] + COc1cc(Nc2ncc3c(n2)-c2ccc(Cl)cc2C(c2c(F)cccc2OC)=NC3)ccc1C(=O)O [Alisertib] (first compound max 1 µM, 7x7, partner max 10 µM)	-0.0251	-0.0425	0.018	-0.0185	0.627	0.86	0.643	0.361	0.993	0.348	0.837	0.419	0.487	0.487	0.967	0.673	0.315	0.611	0.194	0.798
CC1(C)CCC(CN2CCN(c3ccc(C(=O)NS(=O)(=O)c4ccc(NCC5CCOCC5)c([N+](=O)[O-])c4)c(Oc4cnc5[nH]ccc5c4)c3)CC2)=C(c2ccc(Cl)cc2)C1 [Venetoclax] + C[C@@H]1COCCN1C2=NC(=NC(=C2)C3(CC3)[S@](=N)(=O)C)C4=C5C=CNC5=NC=C4 [AZD6738] (first compound max 1 µM, 7x7, partner max 10 µM)	-0.0737	-0.0674	-0.0787	-0.014	0.681	0.191	0.683	0.372	1	0.472	0.618	0.387	0.712	0.869	0.971	0.842	0.573	0.821	0.617	0.619
